Source: US20240197700A1, “Methods and Compositions for Treating Lysosomal Storage Disorders” (Sanford Health, priority 2021, published 2024)

How the values were obtained:
Cln3^Δex7/8 mice = test: SubC burden (immunohistochemistry) in brain of Cln3^Δex7/8 mice; type: in vivo, mouse
NCL PNCs = test: LysoTracker signal in Batten disease primary neuronal cultures; type: cell-based, mouse
Protocol: Specific experimental details are included in figure legends. In general, after collection and preparation, MEFs and PNCs were dosed with vehicle or semaglutide (10 nM, 100 nM. or 1 μM) on DIV3 and DIV5. On DIV7, cells were exposed to the following dyes: Hoechst 33342 (1:1000 dilution), LysoTracker™ Red DND-99 (1:10,000 dilution), fixed. and imaged. Mice were injected three times per week with vehicle or semaglutide (2.571 μg/mouse, 25.71 μg/mouse) beginning at wean. Body weight was measured at 4, 6, 8, 12, and 16 weeks of age. At 16 weeks of age, Cln3^Δex7/8 mice along with age matched wildtype control mice were CO2 euthanized and intracardially perfused with PBS. Brains were collected and placed on a 1 mm sagittal brain block. Brains were sliced at the midline and 3 mm right of the midline. The 3 mm sagittal piece was flash frozen with −50° C. isopentane and then sectioned on a cryostat at 16 μm and placed on slides. For ASM measurements, slides were counterstained with DAPI. The other hemisphere was fixed in 4% PFA and sectioned at 50 microns on a vibratome. Immunohistochemistry was performed on free-floating sections. For SubC, GFAP, and CD68 immunolabeling, primary antibodies included mitochondrial anti-ATP synthase subunit C (Abcam, ab181243; 1:1000), anti-GFAP (Dako, Z0334; 1:5000), anti-CD68 (AbD Serotec, MCA1957; 1:2000), and secondary antibodies included anti-rabbit biotinylated (Vector Labs, BA-1000 1:1000) and anti-rat (Vector Labs, BA-9400 1:1000). Coverslips were mounted on slides using antifade-mounting media and were stored in the dark before imaging. ASM slides were imaged on a Nikon ECLIPSE™ Ni-E upright microscope with a CoolSNAP™ DYNO camera. Images were extracted from S1BF of the somatosensory cortex, CA3 of the hippocampus, and the VPM/VPL of the thalamus, with multiple images taken of multiple tissues from each animal. IHC slides were imaged and analyzed using an Aperio Digital Pathology Slide Scanner (AT2) and associated software. Images were extracted from the S1BF of the somatosensory cortex, the CA3 of the hippocampus, and the VPM/VPL of the thalamus.
In a further experiment, wild type (WT) and mutant primary neuronal cultures (PNCs) were treated with vehicle or semaglutide (10 nM, 100 nM, 1 μM; see FIG. 19). Cells were plated on in vitro day 0 and dosed with drug-containing media on DIV3 and DIV5. Analysis occurred on DIV7. Concentrations of drug are shown on the x-axis above each image column; genotypes are shown to the left of each row. […] Increasing concentrations of AF38469 are shown along the x-axis.

TFE3 = TFE3 nuclear translocation time course in transfected N2A cells; type: cell-based, mouse; conditions: for TFE3 nuclear translocation (i.e., activation): overall statement, GFP-TFE3 transfected N2A cells, acute treatment
Protocol: Treatment with AF38469 stimulates TFE3 nuclear translocation as monitored via time course study. For (A) and (B), wild type N2A cells were plated and transfected with a pEGFP-N1-TFE3 plasmid for a 24-hour incubation. Cells were treated with vehicle or AF38469 (40 nM, 400 nM) for three hours then immunocytochemistry was performed with anti-GFP (Abcam, ab13970) and 4′, -diamidino-2-phenylindole-dihydrochloride (DAPI). Cells were imaged on the Nikon AIR confocal microscope. For (C), wild type N2A cells were plated and transfected with a pEGFP-N1-TFE3 plasmid for a 24-hour incubation. Cells were dyed and imaged on the CellInsight™ CX7 High-Content Screening Platform (CX7) then treated with media containing vehicle or AF38469 (40 nM, 400 nM). Cells were imaged every 30 minutes for three hours on the CX7 with incubation between imaging sessions, and results were quantified. The statistics were analyzed using Graphpad Prism™. One-way ANOVA. Mean±S.E.M. Dunnett's multiple comparisons test compared to the vehicle treated group. *p<0.05, **p<0.01, ***p<0.001, ****p<0.0001. […] TFEB is a transcription factor that stimulates transcription of genes that are necessary for lysosomal biogenesis and function. Thus, increased TFE3 nuclear translocation is expected to stimulate lysosomal biogenesis and function.
Since LM11A-31 improves lysosomal health and function across diverse cell models of lysosomal storage disorders, we asked whether the drug could be activating transcriptional networks that regulate lysosomal function. The transcription factors TFEB and TFE3 are master regulators of lysosomal biogenesis and function. We hypothesized that LM11A-31 could exert benefits by modulating the nuclear translocation of TFEB and/or TFE3. We tested this in an in vitro system in which GFP fusions of TFEB or TFE3 are expressed and monitored with live imaging (FIG. 15A).

Compound: Cc1cccc(NC(=O)c2ccc(C(F)(F)F)cc2C(=O)O)n1 [AF38469, 2-((6-methylpyridin-2-yl)carbamoyl)-5-(trifluoromethyl)benzoic acid]
- SubC accumulation (Cln3^Δex7/8 mice; overall statement, short term treatment, Cln3^Δex7/8): reduces
- LysoTracker signal (NCL PNCs; 40 nM and 400 nM, Cln2^R207X PNCs): had no impact
- LysoTracker signal (NCL PNCs; 40 nM, 400 nM, 4 μM, Cln1^R151X and Cln6^nclf PNCs, DIV7): significantly reduced
- LysoTracker signal (NCL PNCs; 40 nM, Cln3^Δex7/8 PNCs): significantly increased
- LysoTracker signal (NCL PNCs; 40 nM, Cln8^mnd PNCs): significantly increased
- LysoTracker signal (NCL PNCs; 400 nM, Cln3^Δex7/8 PNCs): significantly reduced
- LysoTracker signal (NCL PNCs; 400 nM, Cln8^mnd PNCs): significantly increased
- LysoTracker signal (NCL PNCs; 4 μM, Cln2^R207X PNCs): significantly reduced
- LysoTracker signal (NCL PNCs; 4 μM, Cln3^Δex7/8 PNCs): had no impact
- LysoTracker signal (NCL PNCs; 4 μM, Cln8^mnd PNCs): had no impact
- TFE3 nuclear translocation (TFE3; 40 nM and 400 nM, 90 minutes of incubation, N2A cells, vs vehicle): significant increase
- TFE3 nuclear translocation (TFE3; 40 nM, 180 minutes of incubation, N2A cells): return to baseline
- TFE3 nuclear translocation (TFE3; 400 nM, 180 minutes of incubation, N2A cells): trend towards increased nuclear translocation
- TFE3 nuclear translocation (i.e., activation) (TFE3): stimulates

Compound: CC[C@H](C)[C@H](N)C(=O)NCCN1CCOCC1 [LM11A-31, N-[2-(morpholin-4-yl)ethyl]-L-isoleucinamide]
- LysoTracker signal (NCL PNCs; LM11A-31 100 nM, Cln2^R207X PNCs): significantly reduced
- LysoTracker signal (NCL PNCs; LM11A-31 1 μM, Cln6^nclf PNCs): significantly reduced
- TFE3 nuclear translocation (TFE3; 100 nM and 1 μM, 90 minutes of incubation): significant increase
- TFE3 nuclear translocation (i.e., activation) (TFE3): stimulated

Compound: semaglutide
- SubC burden (Cln3^Δex7/8 mice; semaglutide 2.571 μg/mouse s.c., CA3 of the hippocampus): had no significant effect
- SubC burden (Cln3^Δex7/8 mice; semaglutide 2.571 μg/mouse s.c., VPM/VPL of the thalamus): had no significant effect
- accumulation of mitochondrial ATP synthase subunit C (SubC) (Cln3^Δex7/8 mice; semaglutide 2.571 μg/mouse, 25.71 μg/mouse s.c., S1BF of the somatosensory cortex): had no significant effect
- SubC burden (Cln3^Δex7/8 mice; semaglutide 25.71 μg/mouse s.c., CA3 of the hippocampus): significantly reduced
- SubC burden (Cln3^Δex7/8 mice; semaglutide 25.71 μg/mouse s.c., VPM/VPL of the thalamus): significantly elevated
- Lysotracker signal (as printed, FIG. 19B) (NCL PNCs; semaglutide 10 nM, 100 nM, 1 μM, Cln2^R207X and Cln6^nclf PNCs): significantly reduced
- LysoTracker signal (NCL PNCs; semaglutide 10 nM, 100 nM, 1 μM, Cln3^Δex7/8 PNCs): had no impact
- LysoTracker signal (NCL PNCs; semaglutide 10 nM, 100 nM, 1 μM, Cln6^nclf and Cln8^mnd PNCs): significantly reduced
- LysoTracker signal (NCL PNCs; semaglutide 10 nM, 1 μM, Cln2^R207X PNCs): significantly reduced
- LysoTracker signal (NCL PNCs; semaglutide 10 nM, Cln1^R151X PNCs): significantly elevated
- LysoTracker signal (NCL PNCs; semaglutide 100 nM, 1 μM, Cln1^R151X PNCs): significantly reduced
- LysoTracker signal (NCL PNCs; semaglutide 100 nM, Cln2^R207X PNCs): significantly elevated
